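Test compounds were applied to cells in 96-well plates for 48 hours at 5 doses. GI50 is the concentration that inhibits growth by half. TGI: total growth inhibition.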
Assays:
Assay in all cases: growth of human tumour cells (NCI), 48 h
BT-549 breast = system: BT-549 breast
NCI-H522 lung = system: NCI-H522 lung
OVCAR-4 ovarian = system: OVCAR-4 ovarian
SK-MEL-2 melanoma = system: SK-MEL-2 melanoma
HOP-92 NSCLC = system: HOP-92 NSCLC
HCT-116 colon = system: HCT-116 colon
LOX IMVI melanoma = system: LOX IMVI melanoma
OVCAR-5 ovarian = system: OVCAR-5 ovarian
A549 NSCLC = system: A549 NSCLC
NCI/ADR-RES ovarian = system: NCI/ADR-RES ovarian
MOLT-4 leukemia = system: MOLT-4 leukemia
RPMI-8226 leukemia = system: RPMI-8226 leukemia
UO-31 renal = system: UO-31 renal
OVCAR-3 ovarian = system: OVCAR-3 ovarian
SN12C renal = system: SN12C renal
ACHN renal = system: ACHN renal
NCI-H23 lung = system: NCI-H23 lung
SF-295 CNS = system: SF-295 CNS
HT29 colon = system: HT29 colon
HL-60(TB) leukemia = system: HL-60(TB) leukemia
EKVX NSCLC = system: EKVX NSCLC
PC-3 prostate = system: PC-3 prostate
SR leukemia = system: SR leukemia
OVCAR-8 ovarian = system: OVCAR-8 ovarian
MDA-MB-231 breast = system: MDA-MB-231 breast
HCC-2998 colon = system: HCC-2998 colon
SNB-75 CNS = system: SNB-75 CNS
HS 578T breast = system: HS 578T breast
DU-145 prostate = system: DU-145 prostate
MALME-3M melanoma = system: MALME-3M melanoma
U251 CNS = system: U251 CNS
RXF 393 renal = system: RXF 393 renal
A498 renal = system: A498 renal
786-0 renal = system: 786-0 renal
SK-MEL-28 melanoma = system: SK-MEL-28 melanoma
UACC-62 melanoma = system: UACC-62 melanoma
NCI-H460 lung = system: NCI-H460 lung
KM12 colon = system: KM12 colon
CCRF-CEM leukemia = system: CCRF-CEM leukemia
NCI-H226 lung = system: NCI-H226 lung
CAKI-1 renal = system: CAKI-1 renal
K-562 leukemia = system: K-562 leukemia
HCT-15 colon = system: HCT-15 colon
M14 melanoma = system: M14 melanoma
SW-620 colon = system: SW-620 colon
TK-10 renal = system: TK-10 renal
COLO 205 colon = system: COLO 205 colon
MDA-MB-435 = system: MDA-MB-435
UACC-257 melanoma = system: UACC-257 melanoma
HOP-62 NSCLC = system: HOP-62 NSCLC
IGROV1 ovarian = system: IGROV1 ovarian
SK-OV-3 ovarian = system: SK-OV-3 ovarian
SF-268 CNS = system: SF-268 CNS
T-47D breast = system: T-47D breast
SK-MEL-5 melanoma = system: SK-MEL-5 melanoma
MCF7 breast = system: MCF7 breast
SF-539 CNS = system: SF-539 CNS
SNB-19 CNS = system: SNB-19 CNS

In the case of `CN1CCN(Cc2ccc(NC(=O)c3cncc(C#Cc4cnc5ccc(OCC(F)F)nn45)c3)cc2C(F)(F)F)CC1`, the GI50 (BT-549 breast) is reported as 930 nM, the TGI (BT-549 breast) is reported as 1690 nM and the GI50 (NCI-H522 lung) is reported as 666 nM. For the same molecule, the TGI (NCI-H522 lung) was 1530 nM, the GI50 (OVCAR-4 ovarian) was 562 nM and the TGI (OVCAR-4 ovarian) was 1510 nM. It also gave a GI50 (SK-MEL-2 melanoma) of 600 nM, a TGI (SK-MEL-2 melanoma) of 1280 nM and a GI50 (HOP-92 NSCLC) of 101 nM. It also gave a TGI (HOP-92 NSCLC) of 359 nM, a GI50 (HCT-116 colon) of 164 nM and a TGI (HCT-116 colon) of 606 nM. It also gave a GI50 (LOX IMVI melanoma) of 235 nM, a TGI (LOX IMVI melanoma) of 838 nM and a GI50 (OVCAR-5 ovarian) of 680 nM. It also gave a TGI (OVCAR-5 ovarian) of 1890 nM, a GI50 (A549 NSCLC) of 221 nM and a TGI (A549 NSCLC) of 612 nM. For the same molecule, the GI50 (NCI/ADR-RES ovarian) was 1040 nM, the TGI (NCI/ADR-RES ovarian) was 5090 nM and the GI50 (MOLT-4 leukemia) was 299 nM. It also gave a TGI (MOLT-4 leukemia) of 2790 nM, a GI50 (RPMI-8226 leukemia) of 515 nM and a TGI (RPMI-8226 leukemia) of 2180 nM. It also gave a GI50 (UO-31 renal) of 571 nM, a TGI (UO-31 renal) of 1200 nM and a GI50 (OVCAR-3 ovarian) of 460 nM. The TGI (OVCAR-3 ovarian) was 1260 nM, the GI50 (SN12C renal) was 500 nM and the TGI (SN12C renal) was 1170 nM. The GI50 (ACHN renal) was 482 nM, the TGI (ACHN renal) was 1210 nM and the GI50 (NCI-H23 lung) was 340 nM. The TGI (NCI-H23 lung) was 1230 nM, the GI50 (SF-295 CNS) was 387 nM and the TGI (SF-295 CNS) was 1200 nM. It also gave a GI50 (HT29 colon) of 282 nM, a TGI (HT29 colon) of 1000 nM and a GI50 (HL-60(TB) leukemia) of 222 nM. The TGI (HL-60(TB) leukemia) was 724 nM, the GI50 (EKVX NSCLC) was 348 nM and the TGI (EKVX NSCLC) was 1020 nM. The GI50 (PC-3 prostate) was 457 nM, the TGI (PC-3 prostate) was 1970 nM and the GI50 (SR leukemia) was 206 nM. For the same molecule, the TGI (SR leukemia) was 1100 nM, the GI50 (OVCAR-8 ovarian) was 705 nM and the TGI (OVCAR-8 ovarian) was 1560 nM. It also gave a GI50 (MDA-MB-231 breast) of 181 nM, a TGI (MDA-MB-231 breast) of 841 nM and a GI50 (HCC-2998 colon) of 516 nM. It also gave a TGI (HCC-2998 colon) of 1610 nM, a GI50 (SNB-75 CNS) of 580 nM and a TGI (SNB-75 CNS) of 1260 nM. For the same molecule, the GI50 (HS 578T breast) was 944 nM, the TGI (HS 578T breast) was 3200 nM and the GI50 (DU-145 prostate) was 339 nM. The TGI (DU-145 prostate) was 929 nM, the GI50 (MALME-3M melanoma) was 120 nM and the TGI (MALME-3M melanoma) was 485 nM. For the same molecule, the GI50 (U251 CNS) was 646 nM, the TGI (U251 CNS) was 1340 nM and the GI50 (RXF 393 renal) was 379 nM. It also gave a TGI (RXF 393 renal) of 1060 nM, a GI50 (A498 renal) of 1370 nM and a TGI (A498 renal) of 2540 nM. The GI50 (786-0 renal) was 451 nM, the TGI (786-0 renal) was 1100 nM and the GI50 (SK-MEL-28 melanoma) was 670 nM. The TGI (SK-MEL-28 melanoma) was 1520 nM, the GI50 (UACC-62 melanoma) was 630 nM and the TGI (UACC-62 melanoma) was 1330 nM. It also gave a GI50 (NCI-H460 lung) of 369 nM, a TGI (NCI-H460 lung) of 1070 nM and a GI50 (KM12 colon) of 5 nM. For the same molecule, the TGI (KM12 colon) was 739 nM, the GI50 (CCRF-CEM leukemia) was 192 nM and the TGI (CCRF-CEM leukemia) was 4310 nM. It also gave a GI50 (NCI-H226 lung) of 451 nM, a TGI (NCI-H226 lung) of 1270 nM and a GI50 (CAKI-1 renal) of 473 nM. It also gave a TGI (CAKI-1 renal) of 1390 nM, a GI50 (K-562 leukemia) of 5 nM and a TGI (K-562 leukemia) of 818 nM. The GI50 (HCT-15 colon) was 207 nM, the TGI (HCT-15 colon) was 909 nM and the GI50 (M14 melanoma) was 167 nM. For the same molecule, the TGI (M14 melanoma) was 619 nM, the GI50 (SW-620 colon) was 275 nM and the TGI (SW-620 colon) was 1200 nM. It also gave a GI50 (TK-10 renal) of 749 nM, a TGI (TK-10 renal) of 1460 nM and a GI50 (COLO 205 colon) of 428 nM. The TGI (COLO 205 colon) was 1150 nM, the GI50 (MDA-MB-435) was 218 nM and the TGI (MDA-MB-435) was 812 nM. The GI50 (UACC-257 melanoma) was 282 nM, the TGI (UACC-257 melanoma) was 963 nM and the GI50 (HOP-62 NSCLC) was 729 nM. For the same molecule, the TGI (HOP-62 NSCLC) was 1640 nM, the GI50 (IGROV1 ovarian) was 242 nM and the TGI (IGROV1 ovarian) was 1030 nM. The GI50 (SK-OV-3 ovarian) was 1510 nM, the TGI (SK-OV-3 ovarian) was 3780 nM and the GI50 (SF-268 CNS) was 520 nM. For the same molecule, the TGI (SF-268 CNS) was 1430 nM, the GI50 (T-47D breast) was 419 nM and the TGI (T-47D breast) was 1170 nM. For the same molecule, the GI50 (SK-MEL-5 melanoma) was 511 nM, the TGI (SK-MEL-5 melanoma) was 1220 nM and the GI50 (MCF7 breast) was 110 nM. For the same molecule, the TGI (MCF7 breast) was 649 nM, the GI50 (SF-539 CNS) was 438 nM and the TGI (SF-539 CNS) was 1100 nM. It also gave a GI50 (SNB-19 CNS) of 1090 nM and a TGI (SNB-19 CNS) of 2850 nM.
